± gives the standard deviation of the averaged measurements.
How the values were obtained:
Settings in all cases: 72 h
Calu-3 [1] = assay: relative viability EC50 (midpoint between 100% and the lowest measured viability); higher = less toxic
HepG2 [2] = assay: as above
Caco-2 [3] = assay: as above
Vero E6 [4] = assay: as above
U2OS [5] = assay: as above
Calu-3 [6] = assay: drug sensitivity score (DSS) for viability; higher = more toxic; extreme values may be limits of the assay
HepG2 [7] = assay: as above
Caco-2 [8] = assay: as above
Vero E6 [9] = assay: as above
U2OS [10] = assay: as above
Calu-3 [11] = assay: cell viability relative to DMSO; higher = less toxic
HepG2 [12] = assay: as above
Caco-2 [13] = assay: as above
Vero E6 [14] = assay: as above
U2OS [15] = assay: as above

Row | Structure (SMILES) | relative viability EC50 (Calu-3 [1]) | relative viability EC50 (HepG2 [2]) | relative viability EC50 (Caco-2 [3]) | relative viability EC50 (Vero E6 [4]) | relative viability EC50 (U2OS [5]) | drug sensitivity score (Calu-3 [6]) | drug sensitivity score (HepG2 [7]) | drug sensitivity score (Caco-2 [8]) | drug sensitivity score (Vero E6 [9]) | drug sensitivity score (U2OS [10]) | cell viability (Calu-3 [11]; 1 nM) | cell viability (Calu-3 [11]; 10 nM) | cell viability (Calu-3 [11]; 100 nM) | cell viability (Calu-3 [11]; 1000 nM) | cell viability (Calu-3 [11]; 10000 nM) | cell viability (HepG2 [12]; 1 nM) | cell viability (HepG2 [12]; 10 nM) | cell viability (HepG2 [12]; 100 nM) | cell viability (HepG2 [12]; 1000 nM) | cell viability (HepG2 [12]; 10000 nM) | cell viability (Caco-2 [13]; 1 nM) | cell viability (Caco-2 [13]; 10 nM) | cell viability (Caco-2 [13]; 100 nM) | cell viability (Caco-2 [13]; 1000 nM) | cell viability (Caco-2 [13]; 10000 nM) | cell viability (Vero E6 [14]; 1 nM) | cell viability (Vero E6 [14]; 10 nM) | cell viability (Vero E6 [14]; 100 nM) | cell viability (Vero E6 [14]; 1000 nM) | cell viability (Vero E6 [14]; 10000 nM) | cell viability (U2OS [15]; 1 nM) | cell viability (U2OS [15]; 10 nM) | cell viability (U2OS [15]; 100 nM) | cell viability (U2OS [15]; 1000 nM) | cell viability (U2OS [15]; 10000 nM)
1 | CCN(CC)CCOC(=O)c1cc(Cl)c(N)cc1OC [SDZ-205-557] | > 10 µM | > 10 µM | > 10 µM | > 10 µM | > 10 µM | 0 | 0 | 0 | 0 | 0 | 107% | 101% | 88% | 96.6% | 90.1% | 105% | 97.1% | 90.6% | 93.3% | 102% | 95.5% | 101% | 97.9% | 106% | 104% | 106% | 104% | 99% | 94.8% | 97.3% | 98.9% | 102% | 97% | 103% | 98.3%
2 | CN1CC(=O)N=C1NC(=O)Nc1cccc(Cl)c1 [fenobam] | > 10 µM | > 10 µM | > 10 µM | > 10 µM | > 10 µM | 0 | 0 | 0 | 0 | 0 | 102% | 101% | 100% | 105% | 97.1% | 110% | 99.4% | 112% | 97% | 103% | 93.1% | 94.4% | 90.1% | 103% | 97.7% | 100% | 97% | 99.5% | 100% | 101% | 96.6% | 106% | 98.2% | 102% | 98.3%
3 | COc1cc([C@@H]2c3cc4c(cc3[C@@H](O[C@@H]3O[C@@H]5CO[C@@H](C)O[C@H]5[C@H](O)[C@H]3O)[C@H]3COC(=O)[C@H]23)OCO4)cc(OC)c1OP(=O)(O)O [etoposide-phosphate] | 1.49 µM | 0.478 µM | > 10 µM | > 10 µM | > 10 µM | 5 | 10 | 0 | 0.3 | 0 | 107% | 106% | 98.3% | 85.7% | 47.1% | 88.6% | 86.8% | 85.4% | 59.7% | 29.5% | 81.7% | 92.6% | 91.9% | 102% | 107% | 93.3% | 97.6% | 92.7% | 86.7% | 88.3% | 95.1% | 104% | 94.9% | 99.7% | 108%
4 | c1ccc2sc(N3CCN(Cc4ccc5c(c4)OCO5)CC3)nc2c1 [2-[1-(4-piperonyl)piperazinyl]benzothiazole] | > 10 µM | > 10 µM | > 10 µM | > 10 µM | > 10 µM | 0 | 0 | 0 | 0 | 0 | 102% | 92.8% | 103% | 98.6% | 90.5% | 98.4% | 108% | 100% | 96% | 103% | 103% | 92.2% | 98.9% | 90.3% | 100% | 92% | 94.8% | 91.7% | 95.8% | 100% | 97.2% | 98% | 106% | 96.1% | 104%
5 | NC[C@H]1O[C@H](O[C@H]2[C@H](O)[C@@H](O[C@H]3O[C@H](CO)[C@@H](O)[C@H](N)[C@H]3O)[C@H](N)C[C@@H]2N)[C@H](O)[C@@H](O)[C@@H]1O [kanamycin] | > 10 µM | > 10 µM | > 10 µM | > 10 µM | > 10 µM | 0 | 0 | 0 | 0 | 0 | 100% | 104% | 101% | 114% | 95.2% | 109% | 88.9% | 88% | 96.5% | 98.5% | 94.3% | 93.1% | 88.1% | 89.3% | 96.1% | 109% | 106% | 99.3% | 99% | 102% | 102% | 102% | 96.1% | 98.3% | 98.2%
6 | C[C@H]1c2cccc(O)c2C(=O)C2=C(O)[C@]3(O)C(=O)C(C(N)=O)=C(O)[C@@H](N(C)C)[C@@H]3[C@@H](O)[C@@H]21 [doxycycline] | > 10 µM | > 10 µM | > 10 µM | > 10 µM | > 10 µM | 0 | 0 | 0.05 ± 0.071 | 0 | 0 | 95.8 ± 5.4% | 108 ± 3.1% | 107 ± 3.3% | 104 ± 2.9% | 99.8 ± 8% | 100 ± 2.8% | 94.3 ± 5.3% | 98.7 ± 9.5% | 108 ± 21% | 94.8 ± 4.3% | 90.2 ± 11% | 96.8 ± 0.85% | 92.6 ± 3.1% | 90.1 ± 5.4% | 88 ± 0.92% | 101 ± 2.9% | 95.8 ± 4.3% | 101 ± 4.5% | 97.8 ± 9.4% | 100 ± 1.8% | 96.5 ± 1.9% | 98.8 ± 1.1% | 96.2 ± 2% | 101 ± 2.3% | 98.6 ± 4%
7 | COc1cccc([C@H](O)C2CCN(CCc3ccc(F)cc3)CC2)c1OC [volinanserin] | > 10 µM | > 10 µM | > 10 µM | > 10 µM | > 10 µM | 0 | 0 | 0.2 | 0 | 0 | 90.9% | 104% | 99.9% | 101% | 95.1% | 99.9% | 99.9% | 95.8% | 101% | 91.3% | 101% | 97.3% | 101% | 90.8% | 88.9% | 102% | 99.9% | 98.9% | 101% | 96.1% | 103% | 96.2% | 99.7% | 98.6% | 98.5%
